Measured values published in patent publication US7687538B2 (priority 2004, dated 2010).

Assays:
κ-opioid receptor (KOR) = κ-opioid receptor (KOR) (Homo sapiens, UniProt P41145); assay: biochemical; format: binding
[1] = molecular target: kappa opiate receptor (KOR) (Homo sapiens, UniProt P41145); conditions: Roth 2002; cited from earlier work
[2] = Siebert 1994; cited from earlier work

Sequence of κ-opioid receptor (KOR) (P41145 whole entry): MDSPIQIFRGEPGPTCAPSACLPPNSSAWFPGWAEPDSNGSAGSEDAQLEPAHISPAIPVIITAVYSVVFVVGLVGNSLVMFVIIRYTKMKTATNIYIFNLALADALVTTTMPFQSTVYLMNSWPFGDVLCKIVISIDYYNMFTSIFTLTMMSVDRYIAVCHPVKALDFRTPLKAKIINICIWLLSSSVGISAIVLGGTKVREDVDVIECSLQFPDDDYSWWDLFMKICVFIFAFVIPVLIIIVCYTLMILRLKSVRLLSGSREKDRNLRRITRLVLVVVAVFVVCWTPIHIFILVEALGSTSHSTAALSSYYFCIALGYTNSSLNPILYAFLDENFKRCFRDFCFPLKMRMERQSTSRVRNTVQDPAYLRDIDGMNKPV
Sequence of kappa opiate receptor (KOR) (P41145 whole entry): as above

Structure (SMILES)	Ki (κ-opioid receptor (KOR)) [nM]	agonist character at the kappa opiate receptor [1]	human dose (psychedelic agent) [2] [mg]
COC(=O)[C@@H]1C[C@H](S)C(=O)[C@H]2[C@@]1(C)CC[C@H]1C(=O)O[C@H](c3ccoc3)C[C@]21C [2-Thiol salvinorin B]	11.2	–	–
COC(=O)[C@@H]1C[C@H](OC(C)=O)C(=O)[C@H]2[C@@]1(C)CC[C@H]1C(=O)O[C@H](c3ccoc3)C[C@]21C [Salvinorin A]	–	full agonist	0.5 to 1
COC(=O)[C@@H]1C[C@H](SC(C)=O)C(=O)[C@H]2[C@@]1(C)CC[C@H]1C(=O)O[C@H](c3ccoc3)C[C@]21C [Salvinorinyl-2-thioacetate]	7.9	–	–
